From patent US9057725B2, “Composition for diagnosing, treating, and preventing liver disease” (SNU R&DB Foundation, priority 2010, dated 2015)
Entries after “also recorded” stand apart in the source; their conditions may differ. Blank lines part the entries; values can stand above or below the compound they belong to.

Assays:
AML12 cells = assay: TM4SF5 expression in AML12 cells treated with EGF, HGF and PDGF before TGFβ; format: cell-based, mouse; details: growth factor 30 minutes before TGFβ (2.5 ng/ml), 24 hours, serum-free
Protocol: AML12 cells were cultured in DMEM supplemented with 10% FBS, which were then washed with serum-free DMEM. The cells were maintained as serum-free status for 4 hours. After serum starvation, the cells were treated with EGF, HGF, and PDGF (PeproTech, Inc., Rocky Hill, N.J., USA) 30 minutes before the treatment of TGFβ (2.5 ng/ml) in order to activate EGFR signaling. The cells were further cultured for 24 hours after the treatment of TGFβ. AML12 cell line was the normal hepatocyte cell line which was sensitive to serum. To make near death condition, the medium was regulated as serum-free and the experiment was carried out under the serum-free condition and ITS (Insulin, transferrin, selenium, Sigma-Aldrich) treated condition, which was the same serum-free condition as mentioned above.
Western blotting was performed to confirm TM4SF5 expression. As a result, when the cells were treated with EGF, HGF, and PDGF, EGFR signaling was activated and thereby TM4SF5 expression was increased (FIG. 11).

[1] = tested on: Balb/c mice treated with CCl4; assay: Hepatic injury and hepatic fibrosis induced by CCl4 in mice; format: in vivo, mouse; details: for hepatic injury (H&E staining): 50 mg/kG oral administration or IP, 3 times/week; for hepatic injury (H&E staining) / collagen type I expression (Masson's Trichrome staining): 2 weeks; for collagen type I expression (Masson's Trichrome staining): oral administration or IP, 50 mg/kG; for Ser10 phosphorylation induction (p27) / TM4SF5 signal transduction process (phosphorylation of Smad3, phosphorylation and activation of EFGR/Erk) / p27 expression / α-SMA expression induction: liver tissue extract, Western blotting
Protocol: Balb/c mice (5 weeks old, n=5) were used. The mice were fed with sterilized water and feeds. For the biological day/night cycle, the indoor light was turned on for 12 hours and off for 12 hours. The mice were treated with CCl4 or ethanol for 2 weeks. The CCl4 group mice were treated with 40% CCl4 diluted in olive oil by intraperitoneal administration ([…], 3 times/week). The CCl4-ContComp group mice were treated with 4′-Amino-4-hydroxychalcone, the control compound (ContComp), every other day and every next day of CCl4 treatment by IP (intraperitoneal injection) or oral administration (50 mg/kG, 40% DMSO, 3 times/week). The CCl4-TSAHC group mice were treated with TSAHC every other day and every next day of CCl4 treatment by IP (intraperitoneal injection) or oral administration (50 mg/kG, 40% DMSO, 3 times/week).
Two weeks later, the mice were sacrificed by using ether. The liver was extracted from the sacrificed animal of each group. Paraffin samples were prepared by the same manner as described in Example 5. The paraffin sections in the thickness of 4-5 μm were fixed on slide, followed by H&E (hematoxylin and eosin) staining for the confirmation of hepatic injury, Masson's Trichrome […] staining for collagen type I staining, and immunihistochemistry with the antibody (1:1500) against α-SMA (smooth muscle actin, Sigma).
Additionally, two mice were randomly selected from each group, from which liver tissue extract was prepared. The protein in the extract was quantified, followed by Western blotting with antibodies against phospho-Y^1173EGFR (Santa Cruz Biotechnology, Santa Cruz, Calif.), phospho-Y^1068EGFR (Santa Cruz Biotechnology, Santa Cruz, Calif.), EGFR (Santa Cruz Biotechnology, Santa Cruz, Calif.), phospho-Erk (Cell Signaling Technology, Danvers, Mass.), Erk (Cell Signaling Technology, Danvers, Mass., USA), phospho-Smad3 (Cell Signaling Technology, Danvers, Mass.), TM4SF5 (antibody of Example 1), α-SMA (smooth muscle actin, Sigma), phospho-S^10-p27 (Santa Cruz Biotechnology, Santa Cruz, Calif., USA), p27 (BD Transduct. Lab. San Jose Calif., USA), and α-tubulin (Sigma-Aldrich).

TM4SF5 [2] = target: T1, TM4SF5 (Mus musculus, UniProt F6X2F3); assay: TGFβ mediated α-SMA expression in normal hepatocytes (AML12 cells) treated with TM4SF5 antagonist, Western blotting; format: cell-based
T1 construct: normal hepatocytes were treated with TGFβ to induce TM4SF5 expression and EMT, during which TSAHC was treated; endogenous in cells; host or cells: AML12 (ATCC), TGFβ-treated
T1 sequence (F6X2F3 1-196): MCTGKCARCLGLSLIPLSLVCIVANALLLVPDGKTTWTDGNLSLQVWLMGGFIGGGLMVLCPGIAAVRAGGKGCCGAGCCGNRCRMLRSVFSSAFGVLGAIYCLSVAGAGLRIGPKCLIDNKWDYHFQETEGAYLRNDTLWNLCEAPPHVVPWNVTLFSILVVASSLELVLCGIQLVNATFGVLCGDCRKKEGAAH
Protocol: FIG. 25 is a set of photographs illustrating the results of Western blotting performed to confirm the level of α-SMA expression induced by TGFβ in AML12 cells treated with TSAHC and […].
First, normal hepatocytes were treated with TGFβ to induce TM4SF5 expression and EMT, during which TSAHC was treated. As described hereinbefore, the normal hepatocytes were washed with serum-free DMEM, followed by serum starvation for 4 hours. Then, the cells treated with TGFβ to induce TM4SF5 expression. 6 hours later, the cells were treated with TSAHC at the concentration of 5 μM or 10 μM, followed by culture for 18 hours. The expression of α-SMA protein was investigated.
For the comparison, the cells were treated with the control compound that had similar structure to TSAHC but had substituted R residue (4′-amino-4-hydroxychalcone) at the same concentration as the above (5 μM or 10 μM).

TM4SF5 [3] = target: T1, TM4SF5; assay: TGFβ1 mediated vimentin expression in AML12 cells, Western blotting; format: cell-based; details: 5 μM or 10 μM
Protocol: FIG. 27 is a set of photographs illustrating the results of Western blotting performed to confirm the level of vimentin expression mediated by TGFβ in AML12 cells treated with TSAHC, 4′-(p-aminobenzenesulfoneamide)-4-hydroxychalcone, and 4,4-dihydroxychalcone.
(§1) In addition, 4′-(p-aminobenzenesulfonamide)-4-hydroxychalcone (ASAHC), the water-soluble […], was treated to AML12 and Chang cells at the concentration of 5 μM or 10 μM.

TM4SF5 [4] = target: T2, TM4SF5 (Homo sapiens, UniProt O14894); assay: TGFβ1 mediated vimentin expression in Chang cells, Western blotting; format: cell-based; details: 5 μM or 10 μM
T2 construct: endogenous in cells; host or cells: Chang cells (ATCC), TGFβ-treated
T2 sequence (O14894 1-197): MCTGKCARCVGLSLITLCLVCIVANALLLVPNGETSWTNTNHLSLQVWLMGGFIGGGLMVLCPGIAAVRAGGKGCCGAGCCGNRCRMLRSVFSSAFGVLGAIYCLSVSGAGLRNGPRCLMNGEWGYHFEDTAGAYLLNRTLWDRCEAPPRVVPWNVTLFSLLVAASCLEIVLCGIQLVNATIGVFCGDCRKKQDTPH
Protocol: FIG. 26 is a set of photographs illustrating the results of Western blotting performed to confirm the level of vimentin expression mediated by TGFβ in Chang cells treated with TSAHC, 4′-(p-aminobenzenesulfoneamide)-4-hydroxychalcone, and 4,4-dihydroxychalcone.
as §1

Chang cells = assay: TM4SF5 expression and EGFR signal transduction system over treatment times of TGFβ and EGF in Chang cells; format: cell-based, human
Protocol: Chang cells were cultured in DMEM supplemented with 10% FBS, which were then washed with serum-free DMEM. The cells were maintained as serum-free status for 4 hours. […] Then, TM4SF5 expression and EGFR signal transduction system were investigated.

[5] = liver tissue of CCl4 treated mice
[6] = AML12 cells, compound 5 μM or 10 μM 6 hours after TGFβ, culture for 18 hours, Western blotting

Compound: HGF: growth factor (PeproTech) used to activate EGFR signaling
TM4SF5 expression (AML12 cells): increased

Compound: Nc1ccc(C(=O)/C=C/c2ccc(O)cc2)cc1 [4′-amino-4-hydroxychalcone, reference compound]
hepatic injury (H&E staining) ([1]; CCl4 together with compound): CCl4 dependency was not observed
collagen type I expression (Masson's Trichrome staining) ([1]; CCl4 together with compound): not detected
Ser10 phosphorylation induction (p27) [1]: not inhibited
TM4SF5 signal transduction process (phosphorylation of Smad3, phosphorylation and activation of EFGR/Erk) [1]: not affected
p27 expression [1]: not inhibited
α-SMA expression induction [1]: not inhibited
EMT [1, 5]: not inhibited
TGFβ mediated α-SMA expression (TM4SF5 [2]; [6]): did not affect
TM4SF5 expression (TM4SF5 [2]; [6]): did not affect

TGFβ1 mediated vimentin expression (TM4SF5 [3]): not much changed
TGFβ1 mediated vimentin expression (TM4SF5 [4]): not much changed
Compound: O=C(/C=C/c1ccc(O)cc1)c1ccc(O)cc1 [4′4-dihydroxychalcone, reference compound]

Compound: PDGF
TM4SF5 expression (AML12 cells): increased

Compound: EGF: growth factor (PeproTech) used to activate EGFR signaling
TM4SF5 expression (AML12 cells): increased
EGFR signal transduction system activation and TM4SF5 expression, EGF only (Chang cells; EGF only for 4 hours at different concentrations): not particularly induced
EGFR signal transduction system activation and TM4SF5 expression over time (Chang cells; TGFβ (2.5 ng/ml) and EGF (50 ng/ml), 0, 0.5, 1, 2, and 24 hours): induced temporally

Compound: Nc1ccc(S(=O)(=O)Nc2ccc(C(=O)/C=C/c3ccc(O)cc3)cc2)cc1 [ASAHC, 4′-(p-aminobenzenesulfonylamino)-4-hydroxychalcone]
TGFβ1 mediated vimentin expression (TM4SF5 [3]): down-regulated
TGFβ1 mediated vimentin expression (TM4SF5 [4]): down-regulated

TGFβ1 mediated vimentin expression (TM4SF5 [3]): down-regulated
TGFβ1 mediated vimentin expression (TM4SF5 [4]): down-regulated
EFGR/Erk phosphorylation (TM4SF5 [2]; normal hepatocytes treated with TGFβ and compound): reduced
Compound: Cc1ccc(S(=O)(=O)Nc2ccc(C(=O)/C=C/c3ccc(O)cc3)cc2)cc1 [TSAHC, 4′-(p-toluenesulfonylamino)-4-hydroxychalcone]
hepatic injury (H&E staining) ([1]; CCl4 together with compound): reduced
α-SMA expression (immunohistochemical staining) ([1]; CCl4 together with compound, liver tissue): reduced
collagen type I expression (Masson's Trichrome staining) ([1]; CCl4 together with compound): decrease; also recorded: reduced
liver H&E staining, compound only ([1]; group treated with compound only, without CCl4): normal liver
Ser10 phosphorylation induction (p27) [1]: inhibited
TM4SF5 signal transduction process (phosphorylation of Smad3, phosphorylation and activation of EFGR/Erk) [1]: not affected
p27 expression [1]: inhibited
α-SMA expression induction [1]: inhibited
EMT [1, 5]: decrease; also recorded: inhibited
TM4SF5 activity [1, 5]: suppressed
TGFβ mediated α-SMA expression (TM4SF5 [2]; [6]): significantly reduced; also recorded: inhibit
